Reference: US20240358841A1, “NANOMATERIALS COMPRISING TETRAVALENT LIPID COMPOUNDS” (Beam Therapeutics Inc., priority 2021, published 2024)

Key:
[1] = LNP encapsulation efficiency by Ribogreen assay; assay type: physicochemical; details: LNP: 47.5% ionizable lipid, 40% cholesterol, 2.5% PEG-2000 DMG, 10% DPSC, N/P 4-8
Protocol: (§1) LNPs were prepared with 47.5% Ionizable Lipid (e.g., a compound provided herein): 40% cholesterol: 2.5% PEG-2000 DMG; and 10% DPSC and an N/P ratio range of 4-8. LNPs were formed by microfluidic mixing of the lipid and NA solutions using a Precision Nanosystems NanoAssemblr Spark or Benchtop series Instruments, according to the manufacturers protocol. A ratio of aqueous to organic solvent of approximately 2:1 or 3:1 was maintained during mixing using differential flow rates. After mixing, LNPs were collected, diluted in phosphate buffer saline (PBS) or Tris-buffered saline (TBS) (approximately 1:1 v/v). Further buffer exchange was conducted using dialysis in PBS or TBS at 4° C. for 4 to 24 hours against a 20 kDa filter. After this initial dialysis, each individual LNP preparation was characterized via dynamic light scattering (DLS) to measure the size (e.g., diameter) and polydispersity. LNPs falling within specific diameter and polydispersity ranges were pooled, and further dialyzed against PBS or TBS at 4° C. for 1 to 4 hours against a 100 kDa dialysis cassette. After the second dialysis, LNPs were sterile filtered using 0.22 μm filter and stored at 4° C. for further use.
RNA concentration and encapsulation efficiency were determined by Ribogreen assay (BioTek Synergy LX plate reader).

[2] = LNP hydrodynamic diameter and polydispersity index by dynamic light scattering (DLS); assay type: physicochemical; details: LNP: 47.5% ionizable lipid, 40% cholesterol, 2.5% PEG-2000 DMG, 10% DPSC, N/P 4-8
Protocol: as §1
LNP hydrodynamic diameter and polydispersity index (PDI) were measured using high throughput dynamic light scattering (DLS) (Stunner, Unchained Labs). LNPs were diluted 1×TBS or PBS to an appropriate concentration and analyzed.

SMILES	Mean Encapsulation Efficiency (%) [1]	Mean Diameter (nm) [2]	Mean PDI [2]
CC/C=C\CCCCOC(CCC(=O)OCC(COC(=O)CCCCCCC/C=C\C/C=C\CCCCC)(COC(=O)CCCCCCC/C=C\C/C=C\CCCCC)COC(=O)OCCCN(CC)CC)OCCCC/C=C\CC [Compound 7-67, 2-(((4,4-bis(((Z)-oct-5-en-1-yl)oxy)butanoyl)oxy)methyl)-2-((((3-(diethylamino)propoxy)carbonyl)oxy)methyl)propane-1,3-diyl (9Z,9′Z,12Z,12′Z)-bis(octadeca-9,12-dienoate)]	89.5%	87.5 nm	0.18
CC/C=C\CCCCOC(CCC(=O)OCC(COC(=O)CCCCCCC/C=C\C/C=C\CCCCC)(COC(=O)CCCCCCC/C=C\C/C=C\CCCCC)COC(=O)OCCCN(C)CC)OCCCC/C=C\CC [Compound 7-69, 2-(((4,4-bis(((Z)-oct-5-en-1-yl)oxy)butanoyl)oxy)methyl)-2-((((3-(ethyl(methyl)amino)propoxy)carbonyl)oxy)methyl)propane-1,3-diyl (9Z,9′Z,12Z,12′Z)-bis(octadeca-9,12-dienoate)]	88.5%	86.1 nm	0.15
CC/C=C\CCCCOC(=O)CCCCCCC(=O)OCC(COC(=O)CCCCCCC(=O)OCCCC/C=C\CC)(COC(=O)CCCCCCC(=O)OCCCC/C=C\CC)COC(=O)NCCN1CCCC1 [Compound 7-18]	38.4%	153.0 nm	0.08
CC/C=C\CCCCOC(CCC(=O)OCC(COC(=O)CCCCCCOC(=O)C(CCCC)CCCCCC)(COC(=O)CCCCCCOC(=O)C(CCCC)CCCCCC)COC(=O)NCCN1CCCC1)OCCCC/C=C\CC (stereo not drawn) [Compound 7-65, ((2-(((4,4-bis(((Z)-oct-5-en-1-yl)oxy)butanoyl)oxy)methyl)-2-((((2-(pyrrolidin-1-yl)ethyl)carbamoyl)oxy)methyl)propane-1,3-diyl)bis(oxy))bis(7-oxoheptane-7,1-diyl) bis(2-butyloctanoate)]	89.2%	82.3 nm	0.15
CCCCC/C=C\CCOC(=O)CCCCCCC(=O)OCC(COC(=O)CCCCCCC(=O)OCC/C=C\CCCCC)(COC(=O)CCCCCCC(=O)OCC/C=C\CCCCC)COC(=O)NCCN1CCCC1 [Compound 7-16, 8,8′-di((Z)-non-3-en-1-yl) O′1,O1-(2-(((8-(((Z)-non-3-en-1-yl)oxy)-8-oxooctanoyl)oxy)methyl)-2-((((2-(pyrrolidin-1-yl)ethyl)carbamoyl)oxy)methyl)propane-1,3-diyl) di(octanedioate)]	79.9%	108.5 nm	0.07
CC/C=C\CCCCOC(CCC(=O)OCC(COC(=O)CCCCCCCOC(=O)C(CCCC)CCCCCC)(COC(=O)CCCCCCCOC(=O)C(CCCC)CCCCCC)COC(=O)NCCN1CCCC1)OCCCC/C=C\CC (stereo not drawn) [Compound 7-66, 2-(((4,4-bis(((Z)-oct-5-en-1-yl)oxy)butanoyl)oxy)methyl)-2-((((2-(pyrrolidin-1-yl)ethyl)carbamoyl)oxy)methyl)propane-1,3-diyl bis(8-((2-butyloctanoyl)oxy)octanoate)]	88.8%	87.2 nm	0.12
CCCCC/C=C\CCOC(=O)CCCC(=O)OCC(COC(=O)CCCC(=O)OCC/C=C\CCCCC)(COC(=O)CCCC(=O)OCC/C=C\CCCCC)COC(=O)OCCCN(CC)CC [Compound 7-37, O,O′-(2-((((3-(diethylamino)propoxy)carbonyl)oxy)methyl)-2-(((5-(((Z)-non-3-en-1-yl)oxy)-5-oxopentanoyl)oxy)methyl)propane-1,3-diyl) di((Z)-non-3-en-1-yl) diglutarate]	71.9%	119.7 nm	0.11
CC/C=C\CCCCOC(CCC(=O)OCC(COC(=O)CCCCCOC(=O)C(CCCC)CCCCCC)(COC(=O)CCCCCOC(=O)C(CCCC)CCCCCC)COC(=O)NCCN1CCCC1)OCCCC/C=C\CC (stereo not drawn) [Compound 7-64, ((2-(((4,4-bis(((Z)-oct-5-en-1-yl)oxy)butanoyl)oxy)methyl)-2-((((2-(pyrrolidin-1-yl)ethyl)carbamoyl)oxy)methyl)propane-1,3-diyl)bis(oxy))bis(6-oxohexane-6,1-diyl) bis(2-butyloctanoate)]	90.4%	82.1 nm	0.13
CCCCC/C=C\CCOC(=O)CCCCCC(=O)OCC(COC(=O)CCCCCC(=O)OCC/C=C\CCCCC)(COC(=O)CC12CC3CC(CC(C3)C1)C2)COC(=O)OCCCN(CC)CC [Compound 7-25, O′1,O1-(2-((2-((3r,5r,7r)-adamantan-1-yl)acetoxy)methyl)-2-((((3-(diethylamino)propoxy)carbonyl)oxy)methyl)propane-1,3-diyl) 7,7′-di((Z)-non-3-en-1-yl) di(heptanedioate)]	66.9%	123.1 nm	0.11
CCCCC/C=C\CCOC(=O)CCCCCC(=O)OCC(COC(=O)CCCCCC(=O)OCC/C=C\CCCCC)(COC(=O)CCCCCC(=O)OCC/C=C\CCCCC)COC(=O)CCCN1CCCC1 [Compound 7-51, 7,7′-di((Z)-non-3-en-1-yl) O′1,O1-(2-(((7-(((Z)-non-3-en-1-yl)oxy)-7-oxoheptanoyl)oxy)methyl)-2-(((4-(pyrrolidin-1-yl)butanoyl)oxy)methyl)propane-1,3-diyl) di(heptanedioate)]	77.1%	126.0 nm	0.08

The next lines start with the values.

Mean Encapsulation Efficiency (%) [1]	Mean Diameter (nm) [2]	Mean PDI [2]	SMILES
88.1%	78.2 nm	0.11	CC/C=C\CCCCOC(CCC(=O)OCC(COC(=O)CCCCCCOC(=O)C(CCCC)CCCCCC)(COC(=O)CCCCCCOC(=O)C(CCCC)CCCCCC)COC(=O)OCCCN(CC)CC)OCCCC/C=C\CC (stereo not drawn) [Compound 7-56]
88.6%	80.2 nm	0.14	CC/C=C\CCCCOC(CCC(=O)OCC(COC(=O)CCCCCCOC(=O)C(CCCC)CCCCCC)(COC(=O)CCCCCCOC(=O)C(CCCC)CCCCCC)COC(=O)OCCCN(C)CC)OCCCC/C=C\CC (stereo not drawn) [Compound 7-62]
90.1%	77.7 nm	0.15	CC/C=C\CCCCOC(CCC(=O)OCC(COC(=O)CCCCCOC(=O)C(CCCC)CCCCCC)(COC(=O)CCCCCOC(=O)C(CCCC)CCCCCC)COC(=O)OCC1CCCN(CC)C1)OCCCC/C=C\CC (stereo not drawn) [Compound 7-58, ((2-(((4,4-bis(((Z)-oct-5-en-1-yl)oxy)butanoyl)oxy)methyl)-2-(((((1-ethylpiperidin-3-yl)methoxy)carbonyl)oxy)methyl)propane-1,3-diyl)bis(oxy))bis(6-oxohexane-6,1-diyl) bis(2-butyloctanoate)]
87.5%	80.1 nm	0.13	CC/C=C\CCCCOC(CCC(=O)OCC(COC(=O)CCCCCOC(=O)C(CCCC)CCCCCC)(COC(=O)CCCCCOC(=O)C(CCCC)CCCCCC)COC(=O)OCCCN(CC)CC)OCCCC/C=C\CC (stereo not drawn) [Compound 7-55]
88.9%	76.1 nm	0.17	CC/C=C\CCCCOC(CCC(=O)OCC(COC(=O)CCCCCOC(=O)C(CCCC)CCCCCC)(COC(=O)CCCCCOC(=O)C(CCCC)CCCCCC)COC(=O)OCCCN(C)CC)OCCCC/C=C\CC (stereo not drawn) [Compound 7-61]
